Where “and” joins values, the source holds several entries; their conditions need not be identical. Equal values may be shown once. Residues, ends and D or L forms follow the SMILES beside them. *: point of attachment. Lauroyl = CCCCCCCCCCCC(=O)*
Key:
[1] = tested on: C2C12 cells; test: Alkaline phosphatase (ALP) stain, BMP-2-induced osteoblast differentiation; type: cell-based; details: 50 ng/mL BMP-2, PA or heparin 0.1-10 μg/mL, 3 days
Experimental: (§1) C2C12 pre-myoblasts were maintained and treated with BMP-2 as depicted in FIG. 5A. C2C12 cells were seeded at 2×10^4 cells/cm2 in 24-well plates in growth media (DMEM with 10% heat-inactivated FBS and 100 U/mL penicillin/streptomycin, P/S) 1 day before treatment. On the following day (Day 0), growth media was replaced with 900 μL maintenance media (growth media with 2.5% FBS) and 100 μL treatment media containing BMP-2 with heparin or PAs. Preparation of the treatment media was as follows: 2.5 μL of BMP-2 stock ([…]) was mixed with 5 μL of heparin or PA stock solutions (0.02, 0.2, or 2 mg/mL), incubated for 5 min on ice, then mixed with DMEM (100 U/mL P/S) to a final volume of 100 μL, followed by 5 min incubation on ice. For treatments with BMP-2 only, the treatment media was prepared according to the method described except without heparin or PAs. Final working concentrations were 50 ng/mL BMP-2 and a range of 0.1, 1, to 10 μg/mL heparin or PAs.
The presence of ALP was stained as a marker for osteoblast differentiation on day 3 by enzymatic labeling described by Mason and Woolston (herein incorporated by reference in its entirety). C2C12 cell layer was fixed with 4% paraformaldehyde (PFA) for 30 s, washed with PBS three times, and stained for 1 h with Naphthol AS-MX phosphate (Sigma-Aldrich, St. Louis, Mo.) and Fast Blue BB salt (Sigma-Aldrich) in 0.1M Tris-HCl at pH 8.2, followed by washing with PBS.

[2] = tested on: C2C12 cells; test: Cell cytotoxicity assay (LDH release, live/dead); type: cell-based; details: 10 μg/mL, 5 h, without BMP-2
Experimental: C2C12 cells were treated with 10 μg/mL heparin or PAs for 5 h (Day 0), and a fraction of the media was collected to measure the presence of lactate dehydrogenase (LDH), a cytosolic enzyme only released upon cell lysis, using CytoTox 96 Non-Radioactive Cytotoxicity Assay (Promega, Madison, Wis.) (n=6). In addition, the remaining cells were stained for viable and dead cells using LIVE/DEAD Viability/Cytoxocity Kit (Invitrogen, Grand Island, N.Y.).

[3] = tested on: C2C12 cells; test: Real-time PCR of osteogenic genes (Runx2, Osx, Ocn); type: cell-based; details: 50 ng/mL BMP-2, 10 μg/mL, 2 days
Experimental: C2C12 cells were treated with 50 ng/ml BMP-2 in the presence of 10 μg/mL heparin or PAs until Day 2, and the osteogenic gene expression levels were determined by real-time PCR as described by Zhao et al. (n=4, in triplicate experiments). Briefly, total RNAs were isolated from cells using TRIzol (Invitrogen) and reverse-transcribed using iScript Reverse Transcription Supermix (Bio-Rad, Des Plaines, Ill.). PCR amplification was analyzed with iQ5 Real-Time PCR Detection System (Bio-Rad) using iQ SYBR Green Supermix (Bio-Rad) and the following primers: Runx2 types II & III (Runx2), 5′-[…]-3′(SEQ ID NO:5) and 5′-CCAAAAGAAGCTTTGCTG-3′ (SEQ ID NO:6); Osterix (Osx), 5′-[…]-3′(SEQ ID NO:7) and 5′-[…]-3′(SEQ ID NO:8); Osteocalcin (Ocn), 5′-[…]-3′(SEQ ID NO:9) and 5′-[…]-3′(SEQ ID NO:10); and Glyceraldehyde-3-phosphate dehydrogenase (GAPDH), 5′-[…]-3′(SEQ ID NO:11) and 5′-[…]-3′(SEQ ID NO:12) (IDT, Coralville, Iowa). For PCR amplification, cDNA was denatured at 94° C. for 5 min, then underwent 40 repeated cycles at 94° C. for 45 s, annealing at 55° C. for 1 min, and extension at 68° C. for 1 min, followed by 79 repeated cycles at 55° C. for 30 s for generation of a melting curve. Expression values of Runx2 II, Osx, and Ocn were normalized to the respective GAPDH levels, and all treatments were normalized to control (BMP-2 only) treatment in order to represent relative fold increase.

[4] = tested on: C2C12 cells; test: Alkaline phosphatase (ALP) activity assay, BMP-2-induced osteoblast differentiation; type: cell-based; details: 10 μg/mL, without BMP-2, 4 days
Experimental: as §1, with “Final working concentrations were 50 ng/mL BMP-2 and a range of 0.1, 1, to 10 μg/mL heparin or PAs.” left out
ALP activity from C2C12 cell layer was measured using QUANTI-Blue ALP substrate (InvivoGen, San Diego, Calif.). […] The plate was incubated at 37° C. for 18 h and absorbance was measured at 630 nm on SpectraMax M5 Microplate Reader (Molecular Devices, Sunnyvale, Calif.). […] The absorbance values from QUANTI-Blue ALP assay was normalized by the amount of dsDNA in each sample, and the resulting values from heparin and PA treatments were normalized to control (BMP-2 only) to represent the relative fold increase (n=3, in triplicate experiments).

[5] = Critical micelle concentration by Nile red fluorescent probe assay; type: physicochemical; details: pH 7.4, Nile red
Experimental: To assess PA nanofiber stability, we measured the critical micelle concentration (CMC) of PAs by Nile red fluorescent probe assay (Boekhoven, A. M. Brizard, P. van Rijn, M. C. A. Stuart, R. Eelkema, J. H. van Esch, Angewandte Chemie (International ed in English) 2011, 50, 12285; herein incorporated by reference in its entirety). At pH 7.4, the supramolecular assembly of the BMP-2-binding PA was detected at above 666 nM (1.5 μg/mL), and that of the diluent PA was detected at above 1 μM (1.2 μg/mL) (FIG. 3). The binding affinities of the PAs to BMP-2 were investigated by surface plasmon resonance (SPR) using hexahistidine-tagged BMP-2 (His-BMP-2) that was immobilized on the surface via nickel (II)-nitrilotriacetic acid (Ni^2+-NTA) chelation (Knecht, D. Ricklin, A. N. Eberle, B. Ernst, J. Mol. Recognit. 2009, 22, 270; herein incorporated by reference in its entirety). As a control, the BMP-2-binding PA (1 μm, pH 7.4) was injected to a bare NTA-dextran chip, and we observed non-specific binding of the PA to the surface (FIG. 4). […]
Critical micelle concentration measurements were performed using Nile Red fluorescence spectroscopy. […] These samples were vortexed, sonicated, and were allowed to equilibrate for 24 hours before fluorescence spectra were obtained. For pH 8.5, PA samples were horn sonicated prior to the addition of Nile Red, and fluorescence spectra were obtained the same day.

Compound | number of ALP-positive cells [1] | cytotoxicity [2] | osteoblastic differentiation by mRNA levels relative to BMP-2 alone [3] | ALP expression without BMP-2 [4] | critical micelle concentration (supramolecular assembly detected at above) [5]
heparin sodium [reference compound] | directly proportional association of the number of ALP-positive cells with heparin concentrations up to 10 μg/mL | did not induce cytotoxicity | enhanced osteoblastic differentiation | did not promote ALP expression | –
CCCCCCCCCCCCCCCC(=O)N[C@H](C(=O)N[C@H](C(=O)N[C@H](C(=O)N[C@@H](C)C(=O)N[C@@H](C)C(=O)N[C@@H](C)C(=O)N[C@@H](CCC(=O)O)C(=O)N[C@@H](CCC(=O)O)C(=O)N[C@@H](CCC(=O)O)C(=O)O)C(C)C)C(C)C)C(C)C [diluent PA, C16-V3A3E3-COOH] (HELM PEPTIDE1{[CCCCCCCCCCCCCCCC(=O)[*:2]].V.V.V.A.A.A.E.E.E}$$$$V2.0) | increased number of ALP-positive cells | did not induce cytotoxicity | enhanced osteoblastic differentiation | – | above 1 μM and > 1.2 μg/mL
CCCCCCCCCCCC(=O)NCCCC[C@H](NC(=O)[C@@H](NC(=O)[C@@H](NC(=O)[C@@H](NC(=O)[C@H](C)NC(=O)[C@H](C)NC(=O)[C@H](C)NC(=O)[C@H](CCC(=O)O)NC(=O)[C@H](CCC(=O)O)NC(=O)[C@H](CCC(=O)O)NC(=O)[C@H](CO)NC(=O)CNC(=O)CNC(=O)CNC(=O)[C@H](Cc1ccc(O)cc1)NC(=O)[C@@H]1CCCN1C(=O)[C@@H](NC(=O)[C@H](Cc1c[nH]cn1)NC(=O)[C@@H]1CCCN1C(=O)[C@H](CO)NC(=O)[C@@H](N)[C@@H](C)O)C(C)C)C(C)C)C(C)C)C(C)C)C(N)=O [BMP-2-binding PA, C12-(K)V3A3E3-SGGGYPVHPST-NH2] (H-TSPHVPYGGGSEEEAAAVVVK(Lauroyl)-NH2; N-terminus and C-terminus assumed) | slight increase in the number of ALP-positive cells | did not induce cytotoxicity | enhanced osteoblastic differentiation | – | above 666 nM and > 1.5 μg/mL

Source: patent publication US11066444B2, “BMP-2-binding peptide amphiphile nanofibers” (Northwestern University, priority 2014, dated 2021)
